Laboratory results taken from ChEMBL document CHEMBL1201862, “PubChem BioAssay data set” (2004).
Active and inactive are the calls of the source.

Key:
[1] = cytotoxicity toward DRD oncogenic fibroblasts, dose response, cell-based, non-viral oncogenic, luminescence (AID 1934); type: functional; conditions: Homo sapiens
BJ [2] = test: cytotoxicity toward BJ-TERT-LT-ST fibroblasts, dose response, cell-based, RAS-independent, luminescence (AID 1935); type: functional; conditions: Homo sapiens;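 also: BJ fibroblasts immortalized with TERT plus LT and ST oncogenes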
BJ [3] = test: cells; type: functional, cell-based; conditions: Homo sapiens
BJ [4] = test: cytotoxicity toward BJ-TERT fibroblasts, dose response, cell-based, RAS-independent, luminescence (AID 1933); type: functional; conditions: Homo sapiens
[5] = target: T1, Short transient receptor potential channel 4 (Mus musculus, UniProt Q9QUQ5); test: mouse TRPC4 channel inhibitors, dose response, cell-based, HEK293 TRPC4/mu-opioid, Fluo-4 calcium (AID 434942); type: functional;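 also: potency of inhibitors blocking the TRPC4 calcium response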
T1 sequence (Q9QUQ5 whole entry): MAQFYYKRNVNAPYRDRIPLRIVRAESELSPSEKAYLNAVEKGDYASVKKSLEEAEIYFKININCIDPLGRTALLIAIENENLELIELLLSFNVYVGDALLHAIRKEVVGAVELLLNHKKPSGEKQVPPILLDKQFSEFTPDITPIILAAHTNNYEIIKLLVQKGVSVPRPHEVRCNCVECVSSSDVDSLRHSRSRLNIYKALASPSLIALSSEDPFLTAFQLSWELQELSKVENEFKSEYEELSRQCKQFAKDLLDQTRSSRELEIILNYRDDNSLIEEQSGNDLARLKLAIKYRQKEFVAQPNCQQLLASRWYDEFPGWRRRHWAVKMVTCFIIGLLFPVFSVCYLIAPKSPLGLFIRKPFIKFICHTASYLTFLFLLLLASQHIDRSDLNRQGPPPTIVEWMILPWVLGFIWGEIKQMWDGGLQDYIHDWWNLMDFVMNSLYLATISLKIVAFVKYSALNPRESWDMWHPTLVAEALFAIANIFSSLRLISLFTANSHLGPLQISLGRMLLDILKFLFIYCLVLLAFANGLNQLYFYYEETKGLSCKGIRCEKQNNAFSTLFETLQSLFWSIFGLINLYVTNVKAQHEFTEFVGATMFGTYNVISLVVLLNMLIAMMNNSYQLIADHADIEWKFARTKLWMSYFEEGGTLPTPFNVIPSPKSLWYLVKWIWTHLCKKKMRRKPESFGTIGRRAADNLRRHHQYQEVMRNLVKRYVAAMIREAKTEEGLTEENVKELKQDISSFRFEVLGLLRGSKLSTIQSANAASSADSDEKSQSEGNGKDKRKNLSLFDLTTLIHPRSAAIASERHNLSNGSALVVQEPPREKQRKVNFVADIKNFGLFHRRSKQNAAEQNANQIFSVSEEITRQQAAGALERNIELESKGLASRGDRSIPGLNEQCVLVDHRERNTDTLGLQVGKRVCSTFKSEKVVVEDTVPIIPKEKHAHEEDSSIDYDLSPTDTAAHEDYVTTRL

Coagulation factor XII = target: T2, Coagulation factor XII (Homo sapiens, UniProt P00748); type: functional;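 also: activated factor XIIa alpha cleaving a fluorogenic AMC peptide substrate; inhibitor potency from loss of enzyme activity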
T2 sequence (P00748 whole entry): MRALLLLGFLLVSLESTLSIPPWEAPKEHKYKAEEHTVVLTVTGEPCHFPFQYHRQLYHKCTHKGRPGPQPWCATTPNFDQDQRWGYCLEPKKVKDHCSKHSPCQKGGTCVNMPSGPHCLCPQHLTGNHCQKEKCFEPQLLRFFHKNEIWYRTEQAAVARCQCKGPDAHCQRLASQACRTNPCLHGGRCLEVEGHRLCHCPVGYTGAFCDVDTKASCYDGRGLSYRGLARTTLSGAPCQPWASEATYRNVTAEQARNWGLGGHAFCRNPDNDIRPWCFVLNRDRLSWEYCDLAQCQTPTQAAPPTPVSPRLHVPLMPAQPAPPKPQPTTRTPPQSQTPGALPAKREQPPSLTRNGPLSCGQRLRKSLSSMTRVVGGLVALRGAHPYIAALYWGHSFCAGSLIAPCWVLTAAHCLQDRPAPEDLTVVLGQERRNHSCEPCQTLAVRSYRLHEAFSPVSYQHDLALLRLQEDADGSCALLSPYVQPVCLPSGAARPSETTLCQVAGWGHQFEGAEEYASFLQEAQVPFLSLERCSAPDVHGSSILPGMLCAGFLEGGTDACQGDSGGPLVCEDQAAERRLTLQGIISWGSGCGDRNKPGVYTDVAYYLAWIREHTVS

[6] = A cytotoxicity screen of small molecule inhibitors of the PhoP region in Salmonella typhi identified in the primary screen. [Related pubchem assays: 1850, 1864, 1985 ]; type: functional
[7] = target: Peroxisome proliferator-activated receptor gamma/Nuclear receptor coactivator 2 (Homo sapiens, UniProt P37231); type: functional;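 also: agonist potency for raising coactivator recruitment to the receptor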
[8] = target: Peroxisome proliferator-activated receptor gamma/Nuclear receptor coactivator 1 (Homo sapiens, UniProt P37231); type: functional;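 also: agonist potency as compounds enhance coactivator SRC-1 recruitment to PPARgamma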
[9] = target: Peroxisome proliferator-activated receptor gamma/Nuclear receptor coactivator 3 (Homo sapiens, UniProt P37231); type: functional;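 also: agonist potency for raising coactivator recruitment to the receptor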
Chain of Peroxisome proliferator-activated receptor gamma/Nuclear receptor coactivator 3 (P37231 whole entry): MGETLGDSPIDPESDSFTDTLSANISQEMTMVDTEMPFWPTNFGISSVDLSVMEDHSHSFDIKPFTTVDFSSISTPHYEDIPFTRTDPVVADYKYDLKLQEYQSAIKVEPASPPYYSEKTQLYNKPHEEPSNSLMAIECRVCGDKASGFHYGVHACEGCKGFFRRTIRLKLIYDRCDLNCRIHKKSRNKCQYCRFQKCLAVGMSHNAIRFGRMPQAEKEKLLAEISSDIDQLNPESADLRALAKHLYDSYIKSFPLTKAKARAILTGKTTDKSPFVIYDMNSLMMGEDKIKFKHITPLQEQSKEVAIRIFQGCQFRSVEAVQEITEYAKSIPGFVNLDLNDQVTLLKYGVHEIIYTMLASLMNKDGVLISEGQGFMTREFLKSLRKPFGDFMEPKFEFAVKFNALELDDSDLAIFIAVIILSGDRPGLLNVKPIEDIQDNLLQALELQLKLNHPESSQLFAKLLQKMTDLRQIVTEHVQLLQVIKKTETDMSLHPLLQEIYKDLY
Chain of Peroxisome proliferator-activated receptor gamma/Nuclear receptor coactivator 3 (Q9Y6Q9 whole entry, further chain): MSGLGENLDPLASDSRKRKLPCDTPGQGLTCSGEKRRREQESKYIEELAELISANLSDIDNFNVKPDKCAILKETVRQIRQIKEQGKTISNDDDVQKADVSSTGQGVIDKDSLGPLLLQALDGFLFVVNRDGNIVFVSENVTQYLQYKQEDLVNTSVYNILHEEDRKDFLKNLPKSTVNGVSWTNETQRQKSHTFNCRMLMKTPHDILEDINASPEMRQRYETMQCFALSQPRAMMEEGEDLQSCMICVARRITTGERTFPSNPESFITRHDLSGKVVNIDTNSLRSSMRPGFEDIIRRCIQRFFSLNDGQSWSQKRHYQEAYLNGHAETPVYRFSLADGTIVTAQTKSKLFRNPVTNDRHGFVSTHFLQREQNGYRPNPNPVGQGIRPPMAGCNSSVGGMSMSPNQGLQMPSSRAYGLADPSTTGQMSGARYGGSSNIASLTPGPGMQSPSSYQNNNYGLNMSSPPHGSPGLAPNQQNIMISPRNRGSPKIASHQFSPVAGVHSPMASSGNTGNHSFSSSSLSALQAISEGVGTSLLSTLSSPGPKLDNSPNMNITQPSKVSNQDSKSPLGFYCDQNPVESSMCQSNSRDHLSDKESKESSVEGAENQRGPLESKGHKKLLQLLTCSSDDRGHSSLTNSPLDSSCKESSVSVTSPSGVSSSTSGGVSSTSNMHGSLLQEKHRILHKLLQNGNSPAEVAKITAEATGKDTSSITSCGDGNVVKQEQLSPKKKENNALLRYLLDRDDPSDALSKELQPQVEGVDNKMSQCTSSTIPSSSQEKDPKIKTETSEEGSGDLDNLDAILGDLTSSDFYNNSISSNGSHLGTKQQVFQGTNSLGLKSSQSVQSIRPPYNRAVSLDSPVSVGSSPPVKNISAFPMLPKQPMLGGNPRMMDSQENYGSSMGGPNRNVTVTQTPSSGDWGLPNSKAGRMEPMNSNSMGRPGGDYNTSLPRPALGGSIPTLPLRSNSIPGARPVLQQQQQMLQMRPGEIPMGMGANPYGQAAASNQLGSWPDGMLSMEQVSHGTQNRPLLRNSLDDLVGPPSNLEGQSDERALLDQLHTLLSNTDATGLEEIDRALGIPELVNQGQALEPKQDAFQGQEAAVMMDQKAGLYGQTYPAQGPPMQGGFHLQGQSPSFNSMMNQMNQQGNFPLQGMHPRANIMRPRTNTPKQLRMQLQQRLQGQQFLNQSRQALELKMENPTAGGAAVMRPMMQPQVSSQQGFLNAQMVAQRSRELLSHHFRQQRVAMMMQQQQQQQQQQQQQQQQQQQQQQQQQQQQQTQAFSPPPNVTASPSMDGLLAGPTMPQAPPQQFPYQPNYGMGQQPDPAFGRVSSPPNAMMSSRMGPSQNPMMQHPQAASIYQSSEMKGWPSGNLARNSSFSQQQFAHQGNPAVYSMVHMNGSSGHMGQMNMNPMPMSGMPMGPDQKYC

[10] = target: T3, Voltage-gated N-type calcium channel alpha-1B subunit/Amyloid beta A4 precursor protein-binding family A member 1 (Homo sapiens, UniProt Q00975+Q02410); type: protein assay
T3 sequence (Q00975 whole entry): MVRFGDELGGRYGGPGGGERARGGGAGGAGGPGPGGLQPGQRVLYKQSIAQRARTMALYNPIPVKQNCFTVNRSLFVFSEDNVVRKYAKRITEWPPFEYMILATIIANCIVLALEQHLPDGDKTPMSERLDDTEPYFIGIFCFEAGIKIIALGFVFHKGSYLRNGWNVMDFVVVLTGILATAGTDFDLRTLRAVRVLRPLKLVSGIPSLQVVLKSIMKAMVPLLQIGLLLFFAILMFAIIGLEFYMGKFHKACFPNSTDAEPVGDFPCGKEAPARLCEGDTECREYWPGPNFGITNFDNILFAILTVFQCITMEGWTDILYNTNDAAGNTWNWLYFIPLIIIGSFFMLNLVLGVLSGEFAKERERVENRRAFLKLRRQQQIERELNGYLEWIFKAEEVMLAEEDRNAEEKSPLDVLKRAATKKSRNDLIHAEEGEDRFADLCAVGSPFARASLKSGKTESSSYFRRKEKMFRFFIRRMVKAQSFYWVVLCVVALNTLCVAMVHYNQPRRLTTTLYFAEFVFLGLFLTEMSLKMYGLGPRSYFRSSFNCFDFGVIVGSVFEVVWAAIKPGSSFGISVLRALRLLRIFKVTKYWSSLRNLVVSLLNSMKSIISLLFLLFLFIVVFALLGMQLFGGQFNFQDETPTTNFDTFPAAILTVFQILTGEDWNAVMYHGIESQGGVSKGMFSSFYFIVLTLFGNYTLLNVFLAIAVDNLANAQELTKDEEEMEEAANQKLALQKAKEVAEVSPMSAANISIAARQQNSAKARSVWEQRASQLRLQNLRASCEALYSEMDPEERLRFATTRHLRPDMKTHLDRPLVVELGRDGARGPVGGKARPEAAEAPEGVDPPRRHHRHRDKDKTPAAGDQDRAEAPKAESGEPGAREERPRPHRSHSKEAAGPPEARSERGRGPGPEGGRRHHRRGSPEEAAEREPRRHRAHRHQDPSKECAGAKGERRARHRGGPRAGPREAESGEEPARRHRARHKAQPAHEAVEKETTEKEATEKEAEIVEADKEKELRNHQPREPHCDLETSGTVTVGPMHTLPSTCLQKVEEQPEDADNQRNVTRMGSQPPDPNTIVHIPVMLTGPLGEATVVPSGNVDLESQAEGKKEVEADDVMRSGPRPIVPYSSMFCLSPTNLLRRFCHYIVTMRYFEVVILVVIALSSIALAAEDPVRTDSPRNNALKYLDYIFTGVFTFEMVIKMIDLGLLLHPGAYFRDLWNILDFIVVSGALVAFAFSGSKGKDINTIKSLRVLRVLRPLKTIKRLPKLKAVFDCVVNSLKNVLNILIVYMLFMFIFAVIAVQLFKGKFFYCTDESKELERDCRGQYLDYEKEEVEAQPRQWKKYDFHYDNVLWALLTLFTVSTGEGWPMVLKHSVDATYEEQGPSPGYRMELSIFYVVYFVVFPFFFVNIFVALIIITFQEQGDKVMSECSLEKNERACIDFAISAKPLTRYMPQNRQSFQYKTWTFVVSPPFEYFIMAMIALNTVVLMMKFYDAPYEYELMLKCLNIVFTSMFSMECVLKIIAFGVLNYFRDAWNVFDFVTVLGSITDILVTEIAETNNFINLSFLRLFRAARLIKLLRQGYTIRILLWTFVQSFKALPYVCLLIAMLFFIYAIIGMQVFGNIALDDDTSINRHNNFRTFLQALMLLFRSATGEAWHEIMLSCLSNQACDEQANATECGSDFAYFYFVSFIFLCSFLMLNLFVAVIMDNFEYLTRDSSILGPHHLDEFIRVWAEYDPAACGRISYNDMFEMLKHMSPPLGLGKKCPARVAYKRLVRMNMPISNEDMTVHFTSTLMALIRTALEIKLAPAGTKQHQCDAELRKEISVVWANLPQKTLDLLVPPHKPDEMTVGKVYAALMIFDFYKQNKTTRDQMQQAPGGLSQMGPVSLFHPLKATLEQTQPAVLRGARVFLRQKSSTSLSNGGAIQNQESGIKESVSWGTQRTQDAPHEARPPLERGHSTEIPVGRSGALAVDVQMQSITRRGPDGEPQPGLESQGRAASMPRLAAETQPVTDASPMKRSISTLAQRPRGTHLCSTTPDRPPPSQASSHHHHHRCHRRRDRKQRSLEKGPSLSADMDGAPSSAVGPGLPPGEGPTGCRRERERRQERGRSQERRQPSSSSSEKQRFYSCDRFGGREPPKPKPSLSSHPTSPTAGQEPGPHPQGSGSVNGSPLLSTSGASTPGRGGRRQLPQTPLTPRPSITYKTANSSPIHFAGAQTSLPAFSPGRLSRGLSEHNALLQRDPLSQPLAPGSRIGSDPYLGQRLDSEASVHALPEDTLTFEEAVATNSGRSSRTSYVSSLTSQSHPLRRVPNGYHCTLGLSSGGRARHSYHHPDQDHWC
T3 sequence (Q02410 whole entry): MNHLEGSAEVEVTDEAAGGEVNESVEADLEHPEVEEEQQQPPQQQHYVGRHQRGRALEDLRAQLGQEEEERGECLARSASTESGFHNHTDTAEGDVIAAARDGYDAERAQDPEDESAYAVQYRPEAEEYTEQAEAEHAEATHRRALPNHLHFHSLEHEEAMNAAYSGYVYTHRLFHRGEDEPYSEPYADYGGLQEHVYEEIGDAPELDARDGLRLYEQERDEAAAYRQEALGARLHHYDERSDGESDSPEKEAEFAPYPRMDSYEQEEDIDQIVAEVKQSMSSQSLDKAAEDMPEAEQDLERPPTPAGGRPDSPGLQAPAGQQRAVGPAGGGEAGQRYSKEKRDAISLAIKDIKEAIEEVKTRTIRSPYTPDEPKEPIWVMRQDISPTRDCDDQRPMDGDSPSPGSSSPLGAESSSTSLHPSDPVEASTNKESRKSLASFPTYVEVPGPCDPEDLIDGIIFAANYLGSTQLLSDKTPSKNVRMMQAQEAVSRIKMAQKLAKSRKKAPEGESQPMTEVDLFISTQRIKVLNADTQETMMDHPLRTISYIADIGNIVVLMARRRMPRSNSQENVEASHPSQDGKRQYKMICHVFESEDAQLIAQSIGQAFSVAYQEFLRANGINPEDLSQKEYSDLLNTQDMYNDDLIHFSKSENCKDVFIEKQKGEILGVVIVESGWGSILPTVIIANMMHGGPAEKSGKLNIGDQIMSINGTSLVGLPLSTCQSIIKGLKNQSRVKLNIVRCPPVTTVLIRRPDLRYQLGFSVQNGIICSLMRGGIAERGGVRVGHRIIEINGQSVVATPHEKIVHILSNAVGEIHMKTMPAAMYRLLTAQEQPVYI

[11] = target: T3, Voltage-gated N-type calcium channel alpha-1B subunit/Amyloid beta A4 precursor protein-binding family A member 1; type: protein assay; remark: listed apart in the source
[12] = target: T4, Polyadenylate-binding protein 1 (Homo sapiens, UniProt P11940); test: PABP1 MLLE–PAM2 binding inhibitor potency, dose response, biochemical, fluorescence polarization, FITC-PAM2 peptide (AID 602259); type: functional; conditions: read-out: IC50_Mean
[13] = target: T4, Polyadenylate-binding protein 1; test: PABP1 MLLE–PAM2 interaction inhibitors, dose response, miRNA deadenylation inhibitor project, biochemical, fluorescence polarization, Cy5-PAM2 peptide, secondary (AID 602260); type: functional; conditions: read-out: IC50_Mean
[14] = target: T5, Ubiquitin-conjugating enzyme E2 N (Homo sapiens, UniProt P61088); type: functional;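 also: Dose-response confirmation in a TR-FRET assay detecting UBC13-driven polyubiquitin chain formation, inhibition measured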
T5 sequence (P61088 whole entry): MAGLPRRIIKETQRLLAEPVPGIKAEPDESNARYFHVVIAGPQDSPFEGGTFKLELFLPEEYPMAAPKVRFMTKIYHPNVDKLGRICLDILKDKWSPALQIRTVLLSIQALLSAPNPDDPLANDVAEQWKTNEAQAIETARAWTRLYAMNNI

[15] = target: Glucose-6-phosphate 1-dehydrogenase (Homo sapiens, UniProt P11413); test: human G6PD enzyme inhibitors, dose response, selectivity assay for P. falciparum G6PD inhibitor project, biochemical, fluorescence (AID 504792); type: functional
[16] = target: DNA dC->dU-editing enzyme APOBEC-3G (Homo sapiens, UniProt Q9HC16); test: Dose Response confirmation of small molecule APOBEC3G DNA Deaminase Inhibitors via a fluorescence-based single-stranded DNA deaminase assay. [Related pubchem assays (depositor defined):AID493012, AID493028]; type: functional
[17] = target: DNA dC->dU-editing enzyme APOBEC-3A (Homo sapiens, UniProt P31941); test: APOBEC3A DNA deaminase inhibitors, dose response, biochemical (AID 504722); type: functional
Hexokinase = target: T6, Hexokinase (Trypanosoma brucei, UniProt Q38C41); test: Confirmation assay for inhibitors of Trypanosoma brucei hexokinase 1-Analogue-first series. [Related pubchem assays (depositor defined):AID1430, AID1632, AID2516, AID2560, AID2579, AID2600, AID449725, AID492951]; type: functional
T6 sequence (Q38C41 whole entry): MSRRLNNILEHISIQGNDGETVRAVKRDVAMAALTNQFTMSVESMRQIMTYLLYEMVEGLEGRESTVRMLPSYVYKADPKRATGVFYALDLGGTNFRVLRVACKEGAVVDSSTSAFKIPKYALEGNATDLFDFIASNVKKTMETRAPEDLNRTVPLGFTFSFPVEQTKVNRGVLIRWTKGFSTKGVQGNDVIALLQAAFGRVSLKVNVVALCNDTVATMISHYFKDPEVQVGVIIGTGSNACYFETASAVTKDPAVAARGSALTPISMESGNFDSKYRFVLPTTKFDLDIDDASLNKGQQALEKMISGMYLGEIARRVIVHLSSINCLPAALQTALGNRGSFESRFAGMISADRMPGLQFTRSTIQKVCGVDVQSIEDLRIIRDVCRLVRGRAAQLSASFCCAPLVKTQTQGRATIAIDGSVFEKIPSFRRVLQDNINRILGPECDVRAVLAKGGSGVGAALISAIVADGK

[18] = inhibitors of intracellular T. cruzi replication, confirmation, NIH3T3 host cells, beta-gal luminescence (AID 2044); type: functional, cell-based;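 also: intracellular parasites grown in NIH/3T3 mouse fibroblasts as host cells; luminescent beta-galactosidase reporter signal from transgenic T. cruzi replicating inside host cells; inhibitors lower the luminescence signal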
[19] = insulin promoter down-regulators in MIN6 cells, imaging, high-content screening, mouse beta cells (AID 1628); type: functional
[20] = cytotoxicity toward NIH3T3 fibroblasts, dose response, counter-screen, cell-based, ATP luminescence, mouse fibroblasts (AID 2010); type: functional;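 also: cells exposed to compound for about 90 hours before reading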
INS1 = test: beta cell apoptosis inhibitors, cytokine rescue, dose response, luminescence, retest (AID 449756); type: functional, cell-based; conditions: Rattus norvegicus;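 also: cell death triggered by IL-1 beta plus TNF-alpha plus IFN-gamma mixture; protective hits raise ATP signal compared with cytokine alone wells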
[21] = cytotoxicity in MIN6 insulinoma cells, dose response, cytotoxicity control, cell-based, mouse insulinoma (AID 2122); type: functional;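 also: confirmatory high-throughput counterscreen run to flag cytotoxic compounds; mouse MIN-6 beta cells carrying an insulin promoter eGFP reporter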
[22] = Luminescence Cell-Based Dose Retest to Confirm Inhibitors of Cancer Stem Cells. [Related pubchem assays (depositor defined):AID2717, AID2721]; type: functional; conditions: Homo sapiens

COc1cccc2cc(-c3csc(NC(=O)CCC(=O)NCCCN4CCC(C)CC4)n3)c(=O)oc12
EC50 [1]: 11.5 µM (active) | EC50 (BJ [2]): > 150 µM (not active) | EC50 (BJ [3]): 13.3 µM (active) | EC50 (BJ [4]): 12.7 µM (active)

COc1ccc(-n2c3c(cc(C(=O)NCc4ccco4)c2=O)C(=O)CC(C)(C)C3)cc1
EC50 [5]: 3.76 µM (active)

CCCC(C)NC(=O)Cc1ccccc1 (stereo not drawn)
IC50 (Coagulation factor XII): > 50 µM (inactive)

COc1cc(OC)cc(C(=O)Nc2ccc(NC(=O)c3ccco3)c(C)c2)c1
EC50 [1]: 9.93 µM (active) | EC50 (BJ [2]): 19.5 µM (active) | EC50 (BJ [3]): 10.1 µM (active) | EC50 (BJ [4]): 15.2 µM (active)

COC(=O)Cc1ccc(NC(S)=NCc2ccc(Cl)cc2)cc1
EC50 [6]: > 50 µM (active)

CCn1cc(/C=C/C(=O)Nc2ccn(Cc3c(F)c(F)c(F)c(F)c3F)n2)cn1
EC50 [7]: > 79.4 µM (not active) | EC50 [8]: > 79.4 µM (not active) | EC50 [9]: > 79.4 µM (not active)

CCCC1(c2ccccc2)NC(=O)N(CC(=O)Nc2cc(S(=O)(=O)N3CCOCC3)ccc2Cl)C1=O (stereo not drawn)
EC50 [6]: > 50 µM (active)

COc1ccc(OC)c(NC(=O)CSc2nnc(N)s2)c1
EC50 [7]: > 79.4 µM (not active) | EC50 [8]: > 79.4 µM (not active) | EC50 [9]: > 79.4 µM (not active)

COc1cccc(-c2ccc(SCc3ccccn3)nn2)c1
EC50 [6]: > 50 µM (active)

N#CC1=C(N)N=C(S)C(C(N)=O)C1c1ccc([N+](=O)[O-])cc1 (stereo not drawn)
IC50 [10]: > 50 µM (inactive) | IC50 [11]: 5.63 µM (active) | IC50 [12]: > 66 µM (inactive) | IC50 [13]: > 66 µM (inactive)

CCCCCCNC(=O)N[C@@H](C(=O)NCCC[C@H]1CN2C(=NC[C@@H]2Cc2ccccc2)N1CCc1cccc(OC)c1)C(C)C
IC50 [14]: > 20 µM (inactive)

O=C1c2ccccc2C(=O)N1OS(=O)(=O)c1ccccc1
IC50 (Coagulation factor XII): 1.61 µM (active)

Cc1cc(C)c2c(=O)n(CC(=O)Nc3cccc(F)c3)sc2n1
IC50 [15]: 22.1 µM (inactive) | IC50 [10]: > 50 µM (inactive) | IC50 [16]: 4.35 µM (active) | IC50 [11]: 8.62 µM (active) | IC50 [17]: > 100 µM (inactive)

Cc1ccc(C)c2[nH]c(=O)c(CN(Cc3nnnn3C3CCCCC3)CC3CCCO3)cc12 (stereo not drawn)
EC50 [5]: 1.68 µM (active) | IC50 (Coagulation factor XII): > 50 µM (inactive)

O=C(NNc1cc(Cl)ccc1Cl)c1c(F)cccc1Cl
IC50 (Coagulation factor XII): > 50 µM (inactive)

COc1ccc(-c2[nH]c3ccccc3c2SCCNC(=O)c2ccccc2)cc1
EC50 [7]: 33.6 µM (not active) | EC50 [8]: 39.5 µM (not active) | EC50 [9]: < 79.4 µM (not active)

CCc1ccc2c(c1)cc(CN(C(=S)Nc1ccc(Cl)cc1)C1CC1)c1nnnn12
EC50 [7]: 8.9 µM (active) | EC50 [8]: 11.5 µM (not active) | EC50 [9]: 11.6 µM (not active)

O=C(Nc1ccncc1)Nc1ccc(Cl)cc1
EC50 [6]: > 50 µM (active)

CC(C)(C)c1ccc(C(=O)Nc2cc(Cl)ccc2O)cc1
IC50 (Hexokinase): 25 µM (inactive)

COc1ccc(C(=O)Nc2cc(I)ccc2C(=O)O)cc1
IC50 (Hexokinase): 14.2 µM (active)

O=C(Cn1sc2ccccc2c1=O)Nc1ccccc1I
IC50 (Hexokinase): 4.75 µM (active)

O=C1c2cccc(Br)c2SCN1c1ccccc1
IC50 (Hexokinase): > 25 µM (inactive)

COCCn1c(SCc2ccc(F)cc2)nc2ccccc2c1=O
EC50 [5]: 2.37 µM (active)

NS(=O)(=O)c1ccc(N/N=C/c2cn(-c3ccccc3)nc2-c2cccs2)c([N+](=O)[O-])c1
EC50 [18]: 0.846 µM (active) | IC50 [19]: 1.43 µM (active) | EC50 [1]: 8.22 µM (active) | EC50 (BJ [2]): 6.17 µM (inconclusive) | EC50 [20]: 12.4 µM (active) | AC50 (INS1): 4.07 µM (active) | EC50 (BJ [3]): 19.4 µM (active) | IC50 [21]: 4.7 µM (active) | EC50 (BJ [4]): 4.24 µM (active) | AC50 [22]: 1.39 µM (active)

Cc1nc(N)sc1C(=O)N/N=C/c1ccco1
IC50 [14]: > 20 µM (inactive)

CCOc1ccc(C(=O)Nc2ccc(-c3nc4ccccc4[nH]3)cc2)cc1[N+](=O)[O-]
IC50 [10]: > 50 µM (inactive) | IC50 [11]: 12.2 µM (active)
